In data set [1] the target is T1, Protein kinase C theta type (Homo sapiens, UniProt Q04759). Nature of the data set: Inhibition of full-length recombinant PKC theta (unknown origin) using ERMRPRKRQGSVRRRV as substrate after 60 mins by scintillation counting analysis in presence of [gamma-33P]ATP.
Data set [2] is described as follows: Cmax in Balb/c mouse at 25 mg/kg, po. Type of data set: ADME, organism-based. More on the design: dose 25 mg/kg, route oral. To be noted: in vivo.
Data set [3] concerns the target T2, Serine/threonine-protein kinase D1 (Homo sapiens, UniProt Q15139).
T2 sequence (Q15139 whole entry): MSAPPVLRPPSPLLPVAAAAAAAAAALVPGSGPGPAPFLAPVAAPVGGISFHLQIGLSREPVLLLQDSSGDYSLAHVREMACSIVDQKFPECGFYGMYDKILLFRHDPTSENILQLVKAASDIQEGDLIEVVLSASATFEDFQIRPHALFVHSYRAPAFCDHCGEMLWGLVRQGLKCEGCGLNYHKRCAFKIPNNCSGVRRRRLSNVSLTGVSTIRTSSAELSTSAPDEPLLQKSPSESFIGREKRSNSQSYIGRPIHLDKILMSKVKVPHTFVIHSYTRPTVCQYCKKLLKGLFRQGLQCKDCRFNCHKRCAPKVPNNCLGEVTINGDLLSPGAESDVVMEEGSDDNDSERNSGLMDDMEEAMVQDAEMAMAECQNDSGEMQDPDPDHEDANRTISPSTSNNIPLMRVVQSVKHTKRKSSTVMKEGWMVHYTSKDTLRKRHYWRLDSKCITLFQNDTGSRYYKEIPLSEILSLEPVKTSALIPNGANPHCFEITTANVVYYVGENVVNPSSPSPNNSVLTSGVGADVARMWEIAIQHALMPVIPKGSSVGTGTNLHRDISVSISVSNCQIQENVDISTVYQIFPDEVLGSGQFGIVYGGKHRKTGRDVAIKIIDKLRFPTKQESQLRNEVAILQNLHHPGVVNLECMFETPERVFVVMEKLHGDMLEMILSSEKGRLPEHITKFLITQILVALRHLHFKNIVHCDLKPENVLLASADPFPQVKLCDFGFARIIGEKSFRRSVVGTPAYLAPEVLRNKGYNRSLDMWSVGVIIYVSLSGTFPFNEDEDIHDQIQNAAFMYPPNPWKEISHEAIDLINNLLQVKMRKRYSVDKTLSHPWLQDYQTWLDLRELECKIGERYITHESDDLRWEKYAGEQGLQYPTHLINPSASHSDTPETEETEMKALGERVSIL
Nature of the data set: Inhibition of PKC mu (unknown origin).

The target in data set [4] is T3, Protein kinase C zeta type (Homo sapiens, UniProt Q05513).
T3 sequence (Q05513 whole entry): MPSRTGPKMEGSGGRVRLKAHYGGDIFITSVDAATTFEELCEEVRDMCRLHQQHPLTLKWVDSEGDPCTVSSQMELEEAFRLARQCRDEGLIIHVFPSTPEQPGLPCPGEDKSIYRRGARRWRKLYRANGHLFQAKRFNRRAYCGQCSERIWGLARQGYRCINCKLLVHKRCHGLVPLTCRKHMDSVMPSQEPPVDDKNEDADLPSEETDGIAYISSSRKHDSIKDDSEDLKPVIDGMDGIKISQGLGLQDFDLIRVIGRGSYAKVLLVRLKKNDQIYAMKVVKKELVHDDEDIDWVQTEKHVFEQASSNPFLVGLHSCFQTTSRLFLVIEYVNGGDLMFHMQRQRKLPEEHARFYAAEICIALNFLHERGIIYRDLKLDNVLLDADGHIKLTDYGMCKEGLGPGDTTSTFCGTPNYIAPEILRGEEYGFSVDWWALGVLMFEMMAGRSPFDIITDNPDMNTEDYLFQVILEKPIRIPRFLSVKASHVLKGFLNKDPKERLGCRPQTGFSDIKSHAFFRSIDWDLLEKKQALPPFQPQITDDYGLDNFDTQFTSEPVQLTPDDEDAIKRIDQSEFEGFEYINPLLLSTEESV
Kind of data set: Inhibition of PKC zeta (unknown origin).

The target of data set [5] is Protein kinase C gamma type (Homo sapiens, UniProt P05129). Kind of data set: Inhibition of PKC gamma (unknown origin).
The target in data set [6] is T4, Protein kinase C beta type (Homo sapiens, UniProt P05771). Kind of data set: Inhibition of PKC beta1 (unknown origin).
T4 sequence (P05771 whole entry): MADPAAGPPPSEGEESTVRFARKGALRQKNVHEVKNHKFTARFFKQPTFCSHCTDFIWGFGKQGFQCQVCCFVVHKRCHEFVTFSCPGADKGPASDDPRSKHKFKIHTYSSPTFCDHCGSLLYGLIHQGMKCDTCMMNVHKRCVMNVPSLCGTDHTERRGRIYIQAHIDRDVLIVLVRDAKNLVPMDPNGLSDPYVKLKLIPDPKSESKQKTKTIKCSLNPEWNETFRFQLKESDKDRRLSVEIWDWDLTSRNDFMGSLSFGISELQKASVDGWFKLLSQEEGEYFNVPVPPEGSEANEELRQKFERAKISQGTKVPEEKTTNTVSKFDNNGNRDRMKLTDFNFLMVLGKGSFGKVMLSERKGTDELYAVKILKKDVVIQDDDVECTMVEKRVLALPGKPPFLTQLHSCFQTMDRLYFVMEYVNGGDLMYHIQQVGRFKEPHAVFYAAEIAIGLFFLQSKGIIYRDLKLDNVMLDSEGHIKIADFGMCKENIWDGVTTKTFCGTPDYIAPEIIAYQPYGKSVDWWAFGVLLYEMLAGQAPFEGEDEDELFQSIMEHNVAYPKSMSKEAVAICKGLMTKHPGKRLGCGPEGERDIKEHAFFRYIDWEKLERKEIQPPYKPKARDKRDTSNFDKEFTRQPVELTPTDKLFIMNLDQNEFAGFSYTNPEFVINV
Data set [7] concerns the target T4, Protein kinase C beta type. Nature of the data set: Inhibition of PKC beta2 (unknown origin).
For data set [8], the target named is RAF proto-oncogene serine/threonine-protein kinase (Homo sapiens, UniProt P04049). Nature of the data set: Inhibition of c-Raf (unknown origin).
Chain of RAF proto-oncogene serine/threonine-protein kinase (P04049 whole entry): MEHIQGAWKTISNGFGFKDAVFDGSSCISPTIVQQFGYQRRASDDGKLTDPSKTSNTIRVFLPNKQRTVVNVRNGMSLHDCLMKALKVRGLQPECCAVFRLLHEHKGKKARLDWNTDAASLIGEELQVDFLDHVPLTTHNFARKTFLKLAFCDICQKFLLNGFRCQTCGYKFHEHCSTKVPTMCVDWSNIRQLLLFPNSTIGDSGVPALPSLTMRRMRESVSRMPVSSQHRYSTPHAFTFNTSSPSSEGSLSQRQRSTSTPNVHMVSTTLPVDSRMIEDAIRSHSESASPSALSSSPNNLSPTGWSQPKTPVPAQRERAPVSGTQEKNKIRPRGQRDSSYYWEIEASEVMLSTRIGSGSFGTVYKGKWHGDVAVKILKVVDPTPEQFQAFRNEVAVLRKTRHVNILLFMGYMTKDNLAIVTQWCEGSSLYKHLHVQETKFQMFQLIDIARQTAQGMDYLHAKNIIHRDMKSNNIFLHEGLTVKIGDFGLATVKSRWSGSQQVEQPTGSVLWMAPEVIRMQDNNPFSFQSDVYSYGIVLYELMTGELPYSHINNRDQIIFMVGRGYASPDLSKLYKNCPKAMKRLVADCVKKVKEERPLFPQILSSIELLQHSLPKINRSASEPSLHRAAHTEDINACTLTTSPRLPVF
The target in data set [9] is Tyrosine-protein kinase Lyn (Homo sapiens, UniProt P07948). Kind of data set: Inhibition of Lyn (unknown origin).
Chain of Tyrosine-protein kinase Lyn (P07948 whole entry): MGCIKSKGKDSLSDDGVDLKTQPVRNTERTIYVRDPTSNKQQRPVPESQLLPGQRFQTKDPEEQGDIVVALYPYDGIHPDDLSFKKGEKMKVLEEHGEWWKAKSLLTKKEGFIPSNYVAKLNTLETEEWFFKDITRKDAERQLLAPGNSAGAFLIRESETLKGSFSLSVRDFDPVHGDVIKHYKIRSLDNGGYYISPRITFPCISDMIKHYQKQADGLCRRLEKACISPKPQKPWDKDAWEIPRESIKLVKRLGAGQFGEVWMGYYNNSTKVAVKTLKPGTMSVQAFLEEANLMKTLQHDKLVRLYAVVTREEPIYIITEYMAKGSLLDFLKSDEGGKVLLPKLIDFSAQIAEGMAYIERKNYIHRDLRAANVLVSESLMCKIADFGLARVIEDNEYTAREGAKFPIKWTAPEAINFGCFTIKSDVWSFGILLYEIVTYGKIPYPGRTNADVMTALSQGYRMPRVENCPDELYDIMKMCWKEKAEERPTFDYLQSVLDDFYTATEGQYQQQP
For data set [10], the target named is T5, Tyrosine-protein kinase ITK/TSK (Homo sapiens, UniProt Q08881).
T5 sequence (Q08881 whole entry): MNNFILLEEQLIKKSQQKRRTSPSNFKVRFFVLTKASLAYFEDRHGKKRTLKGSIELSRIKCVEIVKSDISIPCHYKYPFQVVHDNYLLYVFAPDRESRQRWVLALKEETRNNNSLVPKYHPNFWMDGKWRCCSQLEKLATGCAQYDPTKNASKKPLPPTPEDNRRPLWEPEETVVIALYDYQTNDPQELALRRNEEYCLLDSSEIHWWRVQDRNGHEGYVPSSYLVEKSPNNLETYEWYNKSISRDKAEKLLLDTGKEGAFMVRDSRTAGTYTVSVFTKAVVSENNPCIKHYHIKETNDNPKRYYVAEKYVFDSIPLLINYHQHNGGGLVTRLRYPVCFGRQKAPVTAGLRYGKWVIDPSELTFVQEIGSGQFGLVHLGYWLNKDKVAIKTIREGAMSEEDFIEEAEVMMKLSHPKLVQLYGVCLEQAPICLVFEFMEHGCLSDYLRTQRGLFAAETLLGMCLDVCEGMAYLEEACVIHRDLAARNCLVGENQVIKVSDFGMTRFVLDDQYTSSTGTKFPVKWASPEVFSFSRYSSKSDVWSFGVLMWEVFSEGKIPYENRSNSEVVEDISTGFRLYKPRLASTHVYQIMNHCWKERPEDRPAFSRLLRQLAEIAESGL
Nature of the data set: Inhibition of Itk (unknown origin).

In data set [11] the target is Tyrosine-protein kinase Fyn (Homo sapiens, UniProt P06241). Kind of data set: Inhibition of Fyn (unknown origin).
Chain of Tyrosine-protein kinase Fyn (P06241 whole entry): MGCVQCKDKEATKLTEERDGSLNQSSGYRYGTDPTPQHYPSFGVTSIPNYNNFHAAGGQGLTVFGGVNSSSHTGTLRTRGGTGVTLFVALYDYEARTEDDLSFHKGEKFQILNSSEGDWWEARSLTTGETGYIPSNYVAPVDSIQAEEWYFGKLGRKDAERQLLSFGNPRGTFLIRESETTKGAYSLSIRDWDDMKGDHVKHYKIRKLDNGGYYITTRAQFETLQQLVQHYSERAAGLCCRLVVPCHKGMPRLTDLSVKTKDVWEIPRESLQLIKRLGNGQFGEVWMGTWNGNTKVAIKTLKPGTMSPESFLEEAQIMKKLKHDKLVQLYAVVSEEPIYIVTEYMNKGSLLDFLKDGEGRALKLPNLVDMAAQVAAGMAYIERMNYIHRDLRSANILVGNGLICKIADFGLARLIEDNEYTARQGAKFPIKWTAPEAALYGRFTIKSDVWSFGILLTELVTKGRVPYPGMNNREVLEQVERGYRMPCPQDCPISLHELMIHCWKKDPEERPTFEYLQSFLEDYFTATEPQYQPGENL
Data set [12] deals with Tyrosine-protein kinase Lck (Homo sapiens, UniProt P06239). Kind of data set: Inhibition of Lck (unknown origin).
Chain of Tyrosine-protein kinase Lck (P06239 whole entry): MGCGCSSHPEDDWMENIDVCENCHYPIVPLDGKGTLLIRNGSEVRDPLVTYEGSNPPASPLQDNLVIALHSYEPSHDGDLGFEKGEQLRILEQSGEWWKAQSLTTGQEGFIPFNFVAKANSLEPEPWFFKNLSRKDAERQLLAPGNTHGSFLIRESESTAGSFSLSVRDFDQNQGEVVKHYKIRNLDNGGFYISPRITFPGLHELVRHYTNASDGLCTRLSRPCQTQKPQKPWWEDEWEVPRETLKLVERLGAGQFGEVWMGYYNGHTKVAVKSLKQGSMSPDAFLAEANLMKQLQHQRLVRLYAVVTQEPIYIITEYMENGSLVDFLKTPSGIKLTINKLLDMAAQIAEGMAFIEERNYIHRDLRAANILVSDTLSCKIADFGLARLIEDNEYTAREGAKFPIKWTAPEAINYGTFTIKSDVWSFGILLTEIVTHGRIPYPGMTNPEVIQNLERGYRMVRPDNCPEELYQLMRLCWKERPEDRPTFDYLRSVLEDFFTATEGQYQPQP
Data set [13] is described as follows: Oral bioavailability in rat at 10 mg/kg. Format: ADME, organism-based. The settings on record: in vivo.
Data set [14] in a line: Clearance in rat at 3 mg/kg, iv and 10 mg/kg, po. To be noted: in vivo. Format: ADME, organism-based.
Data set [15] has as its target T1, Protein kinase C theta type. Nature of the data set: Inhibition of PKC-theta in human PBMC cells assessed as inhibition of IL-2 after 24 hrs by bead-based FLISA assay. Type of data set: cell-based.
Data set [16] addresses Protein kinase C alpha type (Homo sapiens, UniProt P17252). Nature of the data set: Inhibition of PKC alpha (unknown origin) using RRRRRKGSFKRKA as substrate after 15 mins by spectrophotometry in presence of ATP.

pIC50, pKi: −log10 of the molar value.

T1 sequence (Q04759 whole entry): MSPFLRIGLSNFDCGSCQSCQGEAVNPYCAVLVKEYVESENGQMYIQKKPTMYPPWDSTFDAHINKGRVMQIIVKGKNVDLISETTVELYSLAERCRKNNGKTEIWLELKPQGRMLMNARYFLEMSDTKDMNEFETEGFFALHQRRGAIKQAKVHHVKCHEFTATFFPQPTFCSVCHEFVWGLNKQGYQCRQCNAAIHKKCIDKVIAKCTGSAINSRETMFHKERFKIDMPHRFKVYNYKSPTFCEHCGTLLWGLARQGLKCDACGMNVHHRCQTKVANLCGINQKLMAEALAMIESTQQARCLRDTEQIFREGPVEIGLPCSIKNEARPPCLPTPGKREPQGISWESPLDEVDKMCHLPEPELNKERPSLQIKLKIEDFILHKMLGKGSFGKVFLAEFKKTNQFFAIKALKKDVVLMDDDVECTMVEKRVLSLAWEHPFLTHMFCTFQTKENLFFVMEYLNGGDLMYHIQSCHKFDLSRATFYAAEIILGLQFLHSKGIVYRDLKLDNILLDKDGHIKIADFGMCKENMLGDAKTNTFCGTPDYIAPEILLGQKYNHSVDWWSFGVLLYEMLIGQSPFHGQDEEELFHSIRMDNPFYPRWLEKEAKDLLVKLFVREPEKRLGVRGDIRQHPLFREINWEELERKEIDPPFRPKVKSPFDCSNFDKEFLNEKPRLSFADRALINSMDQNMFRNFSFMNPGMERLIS

As for `CC(C)[C@@](C)(O)[C@@H]1CN(c2nc(-c3n[nH]c4ncccc34)c(F)cc2Cl)CCN1`, the pKi was 10.10 in data set [1]; 5.62 in [3]; < 5.30 in data set [4]; 6.14 in data set [5]; 7.82 in data set [6]; 6.41 in [7]. In addition, the pKi is < 6.00 in data set [8]; < 6.00 in data set [9]; < 6.00 in data set [10]; < 6.00 in [11]; < 6.00 in data set [12]; 6.45 in [16]. The same compound had a Cmax in [2] of 700 ng/mL. In data set [13], this compound registered a bioavailability of 65%. Besides, the clearance in data set [14] amounted to 7 mL/min/kg. The negative logarithm of the IC50 (pIC50) in data set [15] was 7.96.

These data come from ChEMBL document CHEMBL2321833, “Design and optimization of selective protein kinase C θ (PKCθ) inhibitors for the treatment of autoimmune diseases” (J Med Chem, 2013).
